US9381683B2, “Films and methods of manufacture” (priority 2011, dated 2016)

How the values were obtained:
[1] = Stability of gentamicin sulfate to manufacturing conditions (heat, organic solvents); assay type: physicochemical
Text: In one embodiment, the drug selected must be stable during the manufacturing processes required to fabricate the implant.

Water solubility = assay type: physicochemical
Text: In vitro testing has shown that due to its poor water solubility, triclosan is released from these films only slowly over […] period, with minimal initial burst release.

Molecule	thermal stability (thermally stable above) [1]	stability to organic solvents ([1]; organic solvents including DMSO)	water solubility (Water solubility)
Gentamicin sulfate	above 100 °C	stable	–
Oc1cc(Cl)ccc1Oc1ccc(Cl)cc1Cl [triclosan, 2,4,4′-trichloro-2′-hydroxydiphenyl ether]	–	–	poor
